# Assay results reported in the NIST ThermoML archive (doi:10.1016/j.fluid.2016.03.009).
# Numbers after ± are expanded uncertainties.
# Conditions: 101.33 kPa, Liquid, Vibrating tube method
Compound,mass density (278.15 K) [kg/m3],mass density (283.15 K) [kg/m3],mass density (288.15 K) [kg/m3],mass density (293.15 K) [kg/m3],mass density (298.15 K) [kg/m3],mass density (303.15 K) [kg/m3],mass density (308.15 K) [kg/m3],mass density (313.15 K) [kg/m3],mass density (318.15 K) [kg/m3],mass density (323.15 K) [kg/m3],mass density (328.15 K) [kg/m3],mass density (333.15 K) [kg/m3],mass density (338.15 K) [kg/m3],mass density (343.15 K) [kg/m3],mass density (348.15 K) [kg/m3],mass density (353.15 K) [kg/m3]
CC(O)C(=O)[O-].CCn1cc[n+](C)c1 [1-ethyl-3-methylimidazolium lactate],1157.45 ± 7.3,1153.47 ± 7.2,1149.77 ± 7.2,1146.11 ± 7.1,1142.46 ± 7.1,1138.89 ± 7,1135.43 ± 7,1131.95 ± 7,1128.51 ± 6.9,1125.07 ± 6.9,1121.67 ± 6.8,1118.51 ± 6.8,1117.98 ± 6.8,1111.66 ± 6.7,1108.39 ± 6.7,1105.14 ± 6.6
C[n+]1ccn(CCCCS(=O)(=O)O)c1.O=S(=O)([N-]S(=O)(=O)C(F)(F)F)C(F)(F)F,,1597.92 ± 80,1592.96 ± 80,1587.85 ± 80,1582.58 ± 80,1577.87 ± 80,1573.18 ± 80,1568.52 ± 80,1563.87 ± 80,1559.23 ± 80,1554.6 ± 80,1550.01 ± 80,1545.56 ± 80,1541.12 ± 80,1536.68 ± 80,1532.23 ± 80
C[n+]1ccn(CCCCS(=O)(=O)O)c1.O=S(=O)([O-])O [1-methyl-3-(4-sulfobutyl)-imidazolium hydrogensulfate],,1450.3 ± 80,1447.02 ± 80,,1437.08 ± 80,1433.68 ± 80,,1426.76 ± 80,,1420.51 ± 80,,1414.28 ± 80,,1408.07 ± 80,,1401.8 ± 80
CCC[n+]1cccc(C)c1.O=S(=O)([N-]S(=O)(=O)C(F)(F)F)C(F)(F)F,1467.23 ± 80,1462.43 ± 80,1457.62 ± 80,1452.81 ± 80,1448.03 ± 80,1443.28 ± 80,1438.54 ± 80,1433.81 ± 80,1429.11 ± 80,1424.43 ± 80,1419.79 ± 80,1415.16 ± 80,1409.8 ± 80,1405.96 ± 80,1401.4 ± 80,1396.85 ± 80
